Measurements published in patent US20050014765A1, “Aryl-heteroaromatic products, compositions comprising them and use” (Aventis Pharma S.A., priority 2003, published 2005).
pIC50: −log10 of the molar value. Structures can show the parent of a compound that is named as a salt.

Columns and labels:
[1] = system: HCT116 cells; assay: Inhibition of proliferation of the HCT116 human colon tumor line ([14C]-thymidine incorporation); assay type: cell-based; details: HCT-116, 48 hours incubation at 37° C., read-out: Inhibition of HCT116 proliferation IC 50
Description: Test for Determining the Inhibition of Proliferation of the HCT116 Human Colon Tumor Line
The proliferation of HCT116 cells is evaluated by mesuring the incorporation of [^14C]-thymidine in the following way. The HCT166 cells (from the ATCC) are cultured in a DMEM medium (Gibco) which contains 10% of fetal calf serum and antibiotics (1% penicillin, 1% streptomycin). To perform the proliferation test, the cells are seeded into 96-well cytostar microplates (Amersham) at the rate of 5000 cells per well. The [^14C]-thymidine (0.1 μCi/well) and the products to be evaluated are subsequently added. Variable concentrations of products up to 10 μM are used; the DMSO (solvent used to dissolve the products) should not exceed 0.5% in the medium. 48 hours after incubation at 37° C., the radioactivity incorporated into the cells is measured by counting the plate in a Tri-Lux counter (Wallac). The IC50 is defined as the concentration of product which reduces the radioactivity by 50% compared with an untreated control. A product with an IC50 of less than 10 μm is regarded as cytotoxic.

[2] = biological target: T1, Tubulin purified from pig brains (Sus scrofa, UniProt P02550+P02554); assay: Assessment of the inhibition of tubulin polymerization (turbidimetry at 350 nm); assay type: biochemical; details: concentration which inhibits the rate of polymerization by 50%; tubulin 1 mg/ml, 37° C.; read-out: Inhibition of tubulin polymerization IC 50
T1 construct: Tubulin is purified from pig brains according to published methods; from tissue; host or cells: pig brain
Description: Assessment of the Inhibition of Tubulin Polymerization
Tubulin is purified from pig brains according to published methods (Shelanski et al., 1973, Proc. Natl. Acad. Sci. USA, 70, 765-768. Weingarten et al., 1975, Proc. Natl. Acad. Sci. USA, 72, 1858-1862). Briefly, the brains are ground and centrifuged in an extraction buffer. The tubulin, present in the extract supernatant is subjected to two successive cycles of polymerization at 37° C. and depolymerization at 4° C., before being separated from the MAPs (Microtubule Associated Proteins) by chromatography on a phosphocellulose P11 column (Whatman). The tubulin thus isolated is more than 95% pure. It is stored in a buffer known as RB/2 30% glycerol, the composition of which is 50 mM MES-NaOH [2-(N-morpholino)ethanesulfonic acid], pH 6.8; 0.25 mM MgCl2; 0.5 mM EGTA; 30% (v/v) glycerol, 0.2 mM GTP (guanosine 5′-triphosphate).
The polymerization of the tubulin into microtubules is monitored by turbidimetry as follows: the tubulin is adjusted to a concentration of 10 μm (1 mg/ml) in the RB/2 30% glycerol buffer, to which are added 1 mM GTP and 6 mM MgCl2. The polymerization is initiated by increasing the temperature from 6° C. to 37° C. in a cuvette with a 1 cm optical pathlength, placed in a UVIKON 931 spectrophotometer (Kontron) equipped with a thermostatically-regulated cuvette holder. The increase in turbidity of the solution is monitored at 350 nm.
The products are dissolved at 10 mM in DMSO and added at variable concentrations (0.5 to 10 μm) to the tubulin solution before polymerization. The IC50 is defined as the concentration of the product which inhibits the rate of polymerization by 50%.

T1 sequence (P02550 whole entry): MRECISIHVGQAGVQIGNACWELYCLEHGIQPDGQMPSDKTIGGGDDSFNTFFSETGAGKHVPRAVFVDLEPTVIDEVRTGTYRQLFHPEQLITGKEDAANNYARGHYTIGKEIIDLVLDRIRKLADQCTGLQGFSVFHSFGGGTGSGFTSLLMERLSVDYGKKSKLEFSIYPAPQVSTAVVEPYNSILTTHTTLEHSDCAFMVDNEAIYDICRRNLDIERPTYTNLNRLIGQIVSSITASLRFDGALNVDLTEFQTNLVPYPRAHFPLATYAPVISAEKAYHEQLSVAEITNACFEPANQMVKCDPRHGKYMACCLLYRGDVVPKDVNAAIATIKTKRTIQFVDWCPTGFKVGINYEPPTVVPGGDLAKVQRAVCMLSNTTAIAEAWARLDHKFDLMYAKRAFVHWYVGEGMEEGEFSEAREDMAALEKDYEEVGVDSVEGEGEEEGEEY
T1 sequence (P02554 whole entry): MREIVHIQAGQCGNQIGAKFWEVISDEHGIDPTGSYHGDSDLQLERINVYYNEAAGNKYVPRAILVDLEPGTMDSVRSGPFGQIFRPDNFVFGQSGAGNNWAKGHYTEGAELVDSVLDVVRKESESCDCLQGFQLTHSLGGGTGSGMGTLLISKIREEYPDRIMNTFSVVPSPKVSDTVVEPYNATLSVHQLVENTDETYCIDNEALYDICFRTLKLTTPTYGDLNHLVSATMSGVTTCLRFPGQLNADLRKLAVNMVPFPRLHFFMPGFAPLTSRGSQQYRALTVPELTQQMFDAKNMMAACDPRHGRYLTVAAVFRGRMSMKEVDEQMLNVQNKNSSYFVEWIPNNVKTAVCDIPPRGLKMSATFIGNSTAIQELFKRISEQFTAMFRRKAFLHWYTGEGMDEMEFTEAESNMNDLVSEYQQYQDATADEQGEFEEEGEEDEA

SMILES	pIC50 [1]	pIC50 [2]
O=C(c1cncn1-c1ccccc1)N1CCN(c2cccc(Cl)c2)CC1 [Example 1, [4-(3-Chlorophenyl)piperazin-1-yl](1-phenyl-1H-imidazol-5-yl)methanone]	7.53	5.70
O=C(c1ncoc1-c1ccccc1)N1CCN(c2cccc(Cl)c2)CC1 [Example 2, [4-(3-Chlorophenyl)piperazin-1-yl](5-phenyl-1,3-oxazol-4-yl)methanone]	5.06	4.66
O=C(c1sccc1-c1ccccc1)N1CCN(c2cccc(Cl)c2)CC1 [Example 4, [4-(3-Chlorophenyl)piperazin-1-yl](3-phenylthiophen-2-yl)methanone]	7.28	5.70
COc1cccc(N2CCN(C(=O)c3ccoc3-c3ccc(Cl)cc3)CC2)c1 [Example 5, [4-(3-Methoxyphenyl)piperazin-1-yl][2-(4-chlorophenyl)furan-3-yl]methanone]		4.94
Cn1ccc(-c2ccccc2)c1C(=O)N1CCN(c2cccc(Cl)c2)CC1 [Example 7, [4-(3-Chlorophenyl)piperazin-1-yl](1-methyl-3-phenyl-1H-pyrrol-2-yl)-methanone]		4.89
O=C(c1[nH]cnc1-c1ccccc1)N1CCN(c2cccnc2)CC1 [Example 10, [4-(Pyridin-3-yl)piperazin-1-yl](4-phenyl-1H-imidazol-5-yl)methanone]	7.05	5.51
COc1cc(OC)cc(N2CCN(C(=O)c3cncn3-c3ccccc3)CC2)c1 [Example 11, [4-(3,5-Dimethoxyphenyl)piperazin-1-yl](1-phenyl-1H-imidazol-5-yl)-methanone hydrochloride]	7.34	5.62
CC(=O)Nc1cccc(N2CCN(C(=O)c3[nH]cnc3-c3ccccc3)CC2)c1 [Example 12, [4-(3-Acetylaminophenyl)piperazin-1-yl](4-phenyl-1H-imidazol-5-yl)methanone]	5.92	5.46
N#Cc1cccc(N2CCN(C(=O)c3cncn3-c3ccccc3)CC2)c1 [Example 13, [4-(3-Cyanophenyl)piperazin-1-yl](1-phenyl-1H-imidazol-5-yl)methanone]	7.04	5.54
COc1cc(OC)cc(N2CCN(C(=O)c3cc[nH]c3-c3ccccc3)CC2)c1 [Example 21, [4-(3,5-Dimethoxyphenyl)piperazin-1-yl](2-phenyl-1H-pyrrol-3-yl)methanone]		5.01
CN(C)CCn1cc(C(=O)N2CCN(c3cccc(Cl)c3)CC2)c(-c2ccccc2)c1 [Example 31, [4-(3-Chlorophenyl)piperazin-1-yl][1-(2-dimethylaminoethyl)-4-phenyl-1H-pyrrol-3-yl]methanone hydrochloride]		4.60
O=C(O)CCn1cc(C(=O)N2CCN(c3cccc(Cl)c3)CC2)c(-c2ccccc2)c1 [Example 32, 3-{3-[4-(3-Chlorophenyl)piperazin-1-ylcarbonyl]-4-phenylpyrrol-1-yl}-propionic acid]		5.56
COc1cc(OC)cc(N2CCN(C(=O)c3cn(Cc4cscn4)cc3-c3ccccc3)CC2)c1 [Example 45, [4-(3,5-Dimethoxyphenyl)piperazin-1-yl][1-(thiazol-4-yl)methyl-4-phenyl-1H-pyrrol-3-yl]methanone]		5.31
COc1cc(OC)cc(N2CCN(C(=O)c3ccn(Cc4cccnc4)c3-c3ccccc3)CC2)c1 [Example 64, [4-(3,5-Dimethoxyphenyl)piperazin-1-yl][1-(3-pyridyl)methyl-2-phenyl-1H-pyrrol-3-yl]methanone]		4.87
COC(=O)Cn1cc(C(=O)N2CCN(c3cccc(C(N)=O)c3)CC2)c(-c2ccccc2)c1 [Example 65]		4.87
CS(=O)(=O)c1nc(-c2ccccc2)c(C(=O)N2CCN(c3cccc(C(N)=O)c3)CC2)[nH]1 [Example 71, 3-[4-(2-Methylsulfonyl-4-phenyl-1H-imidazol-4-ylcarbonyl)piperazin-1-yl]benzamide]		4.86
NC(=O)c1cccc(N2CCN(C(=O)c3ccn(CCO)c3-c3ccccc3)CC2)c1 [Example 77, 3-[4-(1-Hydroxyethyl-2-phenyl-1H-pyrrol-3-ylcarbonyl)piperazin-1-yl]-benzamide]		5.44
Cn1ccc(C(=O)N2CCN(c3cccc(CO)c3)CC2)c1-c1ccccc1 [Example 80, [4-(3-Hydroxymethylphenyl)piperazin-1-yl](1-methyl-2-phenyl-1H-pyrrol-3-yl)-methanone]		5.11
O=C(c1cc[nH]c1-c1ccccc1)N1CCN(c2cccc(CO)c2)CC1 [Example 86, [4-(3-Hydroxymethylphenyl)piperazin-1-yl](2-phenyl-1H-pyrrol-3-yl)methanone]		5.19
O=C(c1ccn(CCO)c1-c1ccccc1)N1CCN(c2cccc(CO)c2)CC1 [Example 89]		5.52

The next compounds have a higher pIC50 [2] than those just listed; values first:

pIC50 [1]	pIC50 [2]	SMILES
8.17	6.00	O=C(c1[nH]cnc1-c1ccccc1)N1CCN(c2cccc(Cl)c2)CC1 [Example 3, [4-(3-Chlorophenyl)piperazin-1-yl](4-phenyl-1H-imidazol-5-yl)methanone]
7.47	6.16	O=C(c1[nH]ccc1-c1ccccc1)N1CCN(c2cccc(Cl)c2)CC1 [Example 6, [4-(3-Chlorophenyl)piperazin-1-yl](3-phenyl-1H-pyrrol-2-yl)methanone]
8.54	5.92	COc1cc(OC)cc(N2CCN(C(=O)c3[nH]ccc3-c3ccccc3)CC2)c1 [Example 8, [4-(3,5-Dimethoxyphenyl)piperazin-1-yl](3-phenyl-1H-pyrrol-2-yl)methanone]
8.13	5.92	N#Cc1cccc(N2CCN(C(=O)c3[nH]cnc3-c3ccccc3)CC2)c1 [Example 14, [4-(3-Cyanophenyl)piperazin-1-yl](4-phenyl-1H-imidazol-5-yl)methanone]
	5.97	NC(=O)c1cccc(N2CCN(C(=O)c3[nH]c(S)nc3-c3ccccc3)CC2)c1 [Example 44, 3-[4-(2-Mercapto-4-phenyl-1H-imidazol-5-ylcarbonyl)piperazin-1-yl]benzamide]
	5.80	COC(=O)Cn1ccc(C(=O)N2CCN(c3cc(OC)cc(OC)c3)CC2)c1-c1ccccc1 [Example 49, Methyl 2-{3-[4-(3,5-dimethoxyphenyl)piperazin-1-yl]carbonyl-2-phenyl-1H-pyrrol-1-yl}acetate]
	5.85	O=C(c1[nH]c(C(F)(F)F)nc1-c1ccccc1)N1CCN(c2cccc(CO)c2)CC1 [Example 83, [4-(3-Hydroxymethylphenyl)piperazin-1-yl](2-trifluoromethyl-4-phenyl-1H-imidazol-5-yl)methanone]
	6.24	N#Cc1cccc(N2CCN(C(=O)c3[nH]c(C(F)(F)F)nc3-c3ccccc3)CC2)c1 [Example 84, 3-[4-(2-Trifluoromethyl-4-phenyl-1H-imidazol-5-ylcarbonyl)piperazin-1-yl]-benzonitrile]
	6.24	N#Cc1cccc(N2CCN(C(=O)c3cn(CCO)cc3-c3ccccc3)CC2)c1 [Example 87, 3-[4-(1-Hydroxyethyl-4-phenyl-1H-pyrrol-3-ylcarbonyl)piperazin-1-yl]-benzonitrile]
	7.02	COCCNc1nc(-c2ccccc2)c(C(=O)N2CCN(c3cc(C)cc(C)c3)CC2)s1 [Example 90, [4-(3,5-Dimethylphenyl)piperazin-1-yl][2-(2-methoxyethyl)amino-4-phenylthiazol-5-yl]methanone]
	7.05	COCCNc1nc(-c2ccccc2)c(C(=O)N2CCN(c3cc(OC)cc(OC)c3)CC2)s1 [Example 91, [4-(3,5-Dimethoxyphenyl)piperazin-1-yl][2-(2-methoxyethyl)amino-4-phenylthiazol-5-yl]methanone]
	6.78	N#Cc1cccc(N2CCN(C(=O)c3cn(Cc4cccnc4)cc3-c3ccccc3)CC2)c1 [Example 92, 3-{4-[1-(Pyridin-3-yl)methyl-4-phenyl-1H-pyrrol-3-ylcarbonyl]piperazin-1-yl}-benzonitrile]
